Results published in patent US20100076037A1, “Methods of Treating Neuropathic Pain with Agonists of PPAR-gamma” (priority 2006, published 2010).
Where two headings read alike, the source gives them in different places.

Assays:
[1] = tested on: male Sprague Dawley rats; conditions: 20 mg/kg/day; cited from earlier work
[2] = tested on: male db/db mice; conditions: 5 mg/kg bid for 14 days; cited from earlier work
[3] = tested on: patients with type II diabetes; conditions: cited from earlier work
[4] = tested on: Sprague-Dawley rats; conditions: 20 mg/kg/day for 2 weeks, cited from earlier work
[5] = target: PPAR δ (Homo sapiens, UniProt Q03181); conditions: cited from earlier work
[6] = tested on: 3T3 L1 adipocytes; conditions: cited from earlier work
[7] = tested on: Male Sprague-Dawley rats; assay: mechanical allodynia induced by spinal nerve ligation (SNL) in rats, von Frey; assay type: in vivo, rat; conditions: 20 mg/kg PO, post-SNL day 16, vs. vehicle
Method: Male Sprague-Dawley rats (Hsd:Sprague-Dawley®SD®, Harlan, Indianapolis, Ind., U.S.A.) weighing 223±2 g on Day14 were housed three per cage. Animals had free access to food and water and were maintained on a 12:12 h light/dark schedule for the entire duration of the study. The animal colony was maintained at 21° C. and 60% humidity. All experiments were conducted in accordance with the International Association for the Study of Pain guidelines and were approved by the University of Minnesota Animal Care and Use Committee.
The Spinal Nerve Ligation (SNL) model was used to induce chronic neuropathic pain. […]
Baseline, post-injury and post-treatment values for non-noxious mechanical sensitivity were evaluated using 8 Semmes-Weinstein filaments (Stoelting, Wood Dale, Ill., USA) with varying stiffness (0.4, 0.7, 1.2, 2.0, 3.6, 5.5, 8.5, and 15 g) according to the up-down method. […] The mean and standard error of the mean (SEM) were determined for each paw in each treatment group. […]
Statistical analyses were conducted using Prism™ 4.01 (GraphPad, San Diego, Calif., USA). Mechanical hypersensitivity of the injured paw was determined by comparing pre-SNL to post-SNL values at Day14. Data were analyzed using the Wilcoxon test. […] Drug effect was analyzed by comparing post-vehicle and post-drug values using the Friedman test followed by a Dunn's post hoc test.

[8] = tested on: rats; conditions: cited from earlier work
[9] = tested on: Zucker diabetic fatty (ZDF) rats; conditions: cited from earlier work
[10] = cited from earlier work
[11] = tested on: conscious rats; conditions: 2 mg/ml at 0.4 ml/h for 2 h bid for 4 days; cited from earlier work

Sequence of PPAR δ (Q03181 whole entry, species assumed): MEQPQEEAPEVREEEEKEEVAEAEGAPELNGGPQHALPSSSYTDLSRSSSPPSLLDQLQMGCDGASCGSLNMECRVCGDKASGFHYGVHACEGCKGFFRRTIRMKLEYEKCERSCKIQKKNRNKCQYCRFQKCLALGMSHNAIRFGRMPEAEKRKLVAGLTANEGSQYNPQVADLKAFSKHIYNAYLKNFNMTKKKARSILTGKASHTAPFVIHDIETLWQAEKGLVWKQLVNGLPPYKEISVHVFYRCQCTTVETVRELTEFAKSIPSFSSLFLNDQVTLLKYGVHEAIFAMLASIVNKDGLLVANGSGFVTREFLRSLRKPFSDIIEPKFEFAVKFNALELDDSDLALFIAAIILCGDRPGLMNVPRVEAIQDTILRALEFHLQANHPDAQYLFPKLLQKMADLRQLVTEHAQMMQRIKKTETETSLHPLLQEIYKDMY

Cc1oc(-c2ccccc2)nc1CCOc1ccc(C[C@H](Nc2ccccc2C(=O)c2ccccc2)C(=O)O)cc1 [farglitazar]
elevation of ENaC α subunit mRNA in kidney medulla [1]: 32%
elevation of PPARgamma mRNA in kidney medulla [1]: 31%
elevation of glucocorticoid receptor mRNA in kidney medulla [1]: 13%
plasma volume [1]: rapid onset of plasma volume expansion
non-fasted glucose and insulin [2]: significant decrease
blood pressure ([3]; 5 and 10 mg/day, hypertensive type II diabetic patients): significantly lowered
glucose, insulin and triglycerides ([3]; 14-day trial, 35 patients): significant reductions
serum VEGF ([4]; high-fat diet): significantly suppressed
postprandial serum insulin [4]: normalized
activity at PPAR δ [5]: inactive
basal VEGF secretion [6]: modestly increased
mechanical allodynia [7]: significantly (p<0.05 vs. vehicle, Dunn's post hoc test) reduced
vasodilator NO levels ([8]; 8 mg/kg bid po): Increased
systemic vascular pressure and arterial pressure ([8]; diabetic rats, 8 mg/kg bid, 10 days): decreased
rats that maintained normal fed glucose levels throughout the 24-week study ([9]; 3 mg/kg/day, start at 6 weeks): 12 of 13
rats that maintained fed plasma glucose levels ([9]; 3 mg/kg/day, start at 10 weeks): 0 of 10
levels of non-esterified fatty acids ([9]; rat, in vivo): dose-dependently reduced
AUC ([10]; 0.5 mg po): 44 ng·h/mL
Cmax ([10]; 0.5 mg po): 20 ng/mL
Half-life (t1/2) ([10]; 0.5 mg po): 3 h
AUC ([10]; 1.5 mg po): 111 ng·h/mL
Cmax ([10]; 1.5 mg po): 48 ng/mL
Half-life (t1/2) ([10]; 1.5 mg po): 3.9 h
AUC ([10]; 5 mg po): 355 ng·h/mL
Cmax ([10]; 5 mg po): 168 ng/mL
Half-life (t1/2) ([10]; 5 mg po): 4.9 h
AUC ([10]; 15 mg po): 963 ng·h/mL
Cmax ([10]; 15 mg po): 378 ng/mL
Half-life (t1/2) ([10]; 15 mg po): 4.9 h
AUC ([10]; 40 mg po): 2636 ng·h/mL
Cmax ([10]; 40 mg po): 1173 ng/mL
Half-life (t1/2) ([10]; 40 mg po): 5.3 h
tolerability ([10]; single oral doses): well tolerated
mean arterial blood pressure [11]: fall
